Columns and labels:
CRAF = CRAF (Homo sapiens, UniProt P04049); test: CRAF kinase activity assay (ADP-Glo); type: biochemical; details: Table 3
Experimental: (§1) Compound preparation: solid samples of each substances in 1dram vials were suspended in DMSO (Fisher Scientific) at a stock concentration of 20 mM. Stocks were kept at −20° C. and protected from light. If solubility of the compound at 20 mM appeared to be an issue, the initial concentration of the DMSO stock was changed to 10 mM or 5 mM.
(§2) In vitro enzymatic reactions were used for evaluating compounds intrinsic activity against BRAF, CRAF and ARAF. For BRAF and CRAF, 0.375 nM of purified GST-tagged kinases (cat #B4062-10UG and cat #R1656-10UG respectively from Millipore Sigma) were incubated with 75 nM of kinase-dead MEK1 substrate (cat #40075; BPS Bioscience) in the presence of 10 μM of Ultrapure ATP (cat #V9102; Promega; part V915A) with and without the test compound in a buffer containing 50 mM HEPES pH 7.5, 10 mM MgCl2, 1 mM EDTA, 0.01% Brij-35 and 2 mM DTT. Separate reactions were performed with the MEK1 substrate and ATP as a blank control. ARAF, kinase reactions were rigorously the same with the exception that kinase concentration was raised to 3.75 nM (cat #1768-0000-1; Reaction Biology).
(§3) For compound treatment, 5 μL/well of test substance solution are placed in a 384-well proxyplate (Perkin Elmer) and mixed with 2× concentrated kinase reactions. The dilution series is selected so that nine concentrations cover a range from 100 nM to 0.01 nM. […] The final concentration of DMSO in the assay is set at 0.05%.
(§4) BRAF and CRAF kinase reactions were carried out for a total of 2 hours at 30° C. and then stopped by ½ dilution in ADP-Glo Reagent (cat #V9102; Promega; part V912C). Reactions were then incubated for 1 h at room temperature before addition of one volume of Kinase Detection Reagent (cat #V9102; Promega; part V917A). Plates were then equilibrated at room temperature for 30 minutes before detection of luminescence on a Synergy Neo2 plate reader (Biotek). The effect of each compound dilution on BRAF and CRAF kinase activity was expressed as % inhibition and calculated as follows. First, the internal 100% inhibition control (average of luminescence in kinase reactions comprising kinase dead MEK1 substrate alone) was subtracted from each data point. The average of DMSO (vehicle) controls (set as 0% inhibition) was established and used to calculate % inhibition:
(§5) IC50 values were obtained by plotting the kinase inhibition values and fitting the dose-activity curves using a log(agonist) versus response−variable slope (four parameters) function using either GraphPadPrism (V7.0) or Dotmatics Screening Ultra platform. Standards included in the ARAF kinase assay were Belvarafenib (MedChem Express cat #HY-109080; CAS #1446113-23-0), LXH254 (MedChem Express cat #HY-112089; CAS #1800398-38-2) and BGB283 (cat #HY-18957; CAS #1446090-79-4).

BRAF = target: T1, BRAF (Homo sapiens, UniProt P15056); test: BRAF kinase activity assay (ADP-Glo); type: biochemical; details: Table 3
T1 construct: GST; purchased Millipore Sigma B4062-10UG
T1 sequence (P15056 whole entry): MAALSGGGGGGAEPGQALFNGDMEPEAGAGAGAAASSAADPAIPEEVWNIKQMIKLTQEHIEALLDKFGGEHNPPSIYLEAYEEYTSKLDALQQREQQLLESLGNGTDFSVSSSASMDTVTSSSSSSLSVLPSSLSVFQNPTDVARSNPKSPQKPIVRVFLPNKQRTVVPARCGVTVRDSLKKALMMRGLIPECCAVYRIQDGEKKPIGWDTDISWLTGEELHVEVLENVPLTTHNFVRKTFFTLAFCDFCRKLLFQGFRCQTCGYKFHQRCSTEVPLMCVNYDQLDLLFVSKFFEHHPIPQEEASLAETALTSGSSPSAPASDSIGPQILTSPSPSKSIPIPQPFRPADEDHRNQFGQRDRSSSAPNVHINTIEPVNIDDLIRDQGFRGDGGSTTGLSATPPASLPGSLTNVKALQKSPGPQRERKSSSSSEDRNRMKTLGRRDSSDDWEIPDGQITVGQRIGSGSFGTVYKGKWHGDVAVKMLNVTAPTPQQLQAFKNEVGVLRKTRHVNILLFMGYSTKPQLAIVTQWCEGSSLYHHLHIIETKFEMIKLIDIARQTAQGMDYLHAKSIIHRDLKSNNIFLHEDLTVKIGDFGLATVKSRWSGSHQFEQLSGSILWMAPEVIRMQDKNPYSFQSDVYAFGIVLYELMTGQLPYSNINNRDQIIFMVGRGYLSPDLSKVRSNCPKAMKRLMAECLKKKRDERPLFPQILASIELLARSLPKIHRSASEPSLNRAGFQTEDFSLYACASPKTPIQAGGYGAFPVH
Experimental: as §1, §2, §3, §4, §5

HCT116 pERK = test: Phospho-ERK inhibition, AlphaLISA SureFire Ultra p-ERK 1/2; type: cell-based, human; details: Table 3; for IC50: 1 h treatment; for HCT116 (Ymin %): lowest value of the pERK IC50 curve
Method in brief: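 IC50 derived by four-parameter fitting of % inhibition, with DMSO as 0% and 1 μM trametinib subtracted as background. Signal is AlphaLISA p-ERK1/2 (Thr202/Tyr204) in lysates of overnight-seeded cells (RPMI-1640, 5% FBS) treated 1 h with ten concentrations from 30 or 10 μM to 0.33 nM, 0.5% DMSO.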

Chain of CRAF (P04049 whole entry): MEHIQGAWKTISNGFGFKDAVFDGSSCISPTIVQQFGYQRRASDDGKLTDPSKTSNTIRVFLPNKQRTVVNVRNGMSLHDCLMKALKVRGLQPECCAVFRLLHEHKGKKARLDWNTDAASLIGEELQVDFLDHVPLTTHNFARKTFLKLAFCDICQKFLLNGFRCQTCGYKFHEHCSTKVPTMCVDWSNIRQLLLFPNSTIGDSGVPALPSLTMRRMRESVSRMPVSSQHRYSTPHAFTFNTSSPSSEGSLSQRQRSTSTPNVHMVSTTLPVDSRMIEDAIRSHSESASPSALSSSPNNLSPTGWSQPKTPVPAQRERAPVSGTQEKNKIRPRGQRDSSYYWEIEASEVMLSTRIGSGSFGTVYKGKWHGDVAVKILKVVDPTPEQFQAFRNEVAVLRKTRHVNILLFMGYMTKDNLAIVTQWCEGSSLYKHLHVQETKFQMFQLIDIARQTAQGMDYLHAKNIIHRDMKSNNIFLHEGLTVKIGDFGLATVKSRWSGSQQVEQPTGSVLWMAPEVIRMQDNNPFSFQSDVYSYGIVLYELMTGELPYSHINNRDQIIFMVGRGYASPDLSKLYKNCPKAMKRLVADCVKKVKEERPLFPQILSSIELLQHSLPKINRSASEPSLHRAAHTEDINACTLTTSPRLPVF

Row | IC50 (CRAF) [nM] | IC50 (BRAF) [nM] | IC50 (HCT116 pERK) [nM] | IC50 (HCT116 pERK; Homo sapiens, HCT-116) [nM] | SMILES | HCT116 (Ymin %) (HCT116 pERK) [%]
1 | 10 to 50 | 1 to 10 | < 500 | – | COc1ccc(S(=O)(=O)Nc2ccc(F)c(Nc3ncnc4cnc(-n5cnc6ccccc65)nc34)c2F)c(C)c1Cl [Example 115] | 2
2 | > 50 | 1 to 10 | < 500 | – | COc1ccc(S(=O)(=O)Nc2ccc(F)c(Nc3ncnc4cnc(-n5cnc6ccccc65)nc34)c2F)c(C)c1F [Example 116] | −1
3 | 10 to 50 | > 10 | 1000 to 10000 | – | COc1ccc(S(=O)(=O)Nc2ccc(F)c(Nc3ncnc4cnc(-n5nnc6ccccc65)nc34)c2F)c(C)c1Cl [Example 117] | −1
4 | 10 to 50 | > 10 | 1000 to 10000 | – | COc1ccc(S(=O)(=O)Nc2ccc(F)c(Nc3ncnc4cnc(-n5nnc6ccccc65)nc34)c2F)c(C)c1F [Example 118] | −14
5 | < 10 | 1 to 10 | 1000 to 10000 | – | Cc1c(F)cccc1S(=O)(=O)Nc1ccc(F)c(Nc2ncnc3cnc(-n4nnc5ccccc54)nc23)c1F [Example 121] | −4
6 | < 10 | 1 to 10 | 1000 to 10000 | – | Cc1c(Cl)cccc1S(=O)(=O)Nc1ccc(F)c(Nc2ncnc3cnc(-n4nnc5ccccc54)nc23)c1F [Example 124] | −9
7 | < 10 | 1 to 10 | < 500 | – | Cc1c(Cl)cccc1S(=O)(=O)Nc1ccc(F)c(Nc2ncnc3cnc(-n4cnc5ccccc54)nc23)c1F [Example 127] | 0
8 | < 10 | 1 to 10 | < 500 | – | CC1(O)CCN(c2cccc3c2ncn3-c2ncc3ncnc(Nc4c(F)ccc(NS(=O)(=O)c5cccc(Cl)c5Cl)c4F)c3n2)CC1 [Example 130] | −13
9 | 10 to 50 | 1 to 10 | < 500 | – | COC1CCN(c2cccc3c2ncn3-c2ncc3ncnc(Nc4c(F)ccc(NS(=O)(=O)c5cccc(Cl)c5Cl)c4F)c3n2)CC1 [Example 131] | −4
10 | < 10 | 1 to 10 | < 500 | – | N#CC1CCN(c2cccc3c2ncn3-c2ncc3ncnc(Nc4c(F)ccc(NS(=O)(=O)c5cccc(Cl)c5Cl)c4F)c3n2)CC1 [Example 132] | −4
11 | < 10 | 1 to 10 | < 500 | – | CCC1(O)CCN(c2cccc3c2ncn3-c2ncc3ncnc(Nc4c(F)ccc(NS(=O)(=O)c5cccc(Cl)c5Cl)c4F)c3n2)CC1 [Example 133] | −6
12 | < 10 | 1 to 10 | < 500 | – | CN(CCO)c1cccc2c1ncn2-c1ncc2ncnc(Nc3c(F)ccc(NS(=O)(=O)c4cccc(Cl)c4Cl)c3F)c2n1 [Example 134] | 8
13 | < 10 | 1 to 10 | – | 500 to 1000 | N#CC1(c2cccc3c2nnn3-c2ncc3ncnc(Nc4c(F)ccc(NS(=O)(=O)c5cccc(Cl)c5Cl)c4F)c3n2)CC1 [Example 135] | –
14 | < 10 | 1 to 10 | < 500 | – | CCC1(O)CCN(c2cccc3c2nnn3-c2ncc3ncnc(Nc4c(F)ccc(NS(=O)(=O)c5cccc(Cl)c5Cl)c4F)c3n2)CC1 [Example 136] | 19
15 | < 10 | 1 to 10 | – | < 500 | COCCOc1cccc2c1nnn2-c1ncc2ncnc(Nc3c(F)ccc(NS(=O)(=O)c4cccc(Cl)c4Cl)c3F)c2n1 [Example 137] | –
16 | 10 to 50 | > 10 | < 500 | – | O=S(=O)(Nc1ccc(F)c(Nc2ncnc3cnc(-n4nnc5c(N6CCC7(CCCO7)CC6)cccc54)nc23)c1F)c1cccc(Cl)c1Cl [Example 138] | 1

Row | IC50 (CRAF) [nM] | IC50 (BRAF) [nM] | IC50 (HCT116 pERK) [nM] | IC50 (HCT116 pERK; Homo sapiens, HCT-116) [nM] | SMILES | HCT116 (Ymin %) (HCT116 pERK) [%]
17 | < 10 | < 1 | < 500 | – | O=S(=O)(Nc1ccc(F)c(Nc2ncnc3cnc(-n4nnc5c(N6CCN(CCO)CC6)cccc54)nc23)c1F)c1cccc(Cl)c1Cl [Example 139] | 2
18 | 10 to 50 | > 10 | < 500 | – | O=S(=O)(Nc1ccc(F)c(Nc2ncnc3cnc(-n4cnc5c(N6CC(CF)C6)cccc54)nc23)c1F)c1cccc(Cl)c1Cl [Example 140] | −16
19 | 10 to 50 | 1 to 10 | < 500 | – | CCS(=O)(=O)c1cn(-c2ncc3ncnc(Nc4c(F)ccc(NS(=O)(=O)c5cccc(Cl)c5Cl)c4F)c3n2)c2ccccc12 [Example 141] | −3
20 | < 10 | < 1 | < 500 | – | O=S(=O)(Nc1ccc(F)c(Nc2ncnc3cnc(-n4cc(S(=O)(=O)C5CCOCC5)c5ccccc54)nc23)c1F)c1cccc(Cl)c1Cl [Example 142] | −15
21 | 10 to 50 | 1 to 10 | < 500 | – | O=S(=O)(Cc1ccncc1)c1cn(-c2ncc3ncnc(Nc4c(F)ccc(NS(=O)(=O)c5cccc(Cl)c5Cl)c4F)c3n2)c2ccccc12 [Example 143] | −7
22 | 10 to 50 | 1 to 10 | < 500 | – | O=S(=O)(CC1CCOCC1)c1cn(-c2ncc3ncnc(Nc4c(F)ccc(NS(=O)(=O)c5cccc(Cl)c5Cl)c4F)c3n2)c2ccccc12 [Example 144] | −9
23 | < 10 | < 1 | < 500 | – | CN(C)C1CCN(c2cccc3c2ncn3-c2ncc3ncnc(Nc4c(F)ccc(NS(=O)(=O)c5cccc(Cl)c5Cl)c4F)c3n2)CC1 [Example 145] | −8
24 | < 10 | < 1 | < 500 | – | O=S(=O)(Nc1ccc(F)c(Nc2ncnc3cnc(-n4cnc5c(N6CCN(CCO)CC6)cccc54)nc23)c1F)c1cccc(Cl)c1Cl [Example 146] | −9
25 | 10 to 50 | 1 to 10 | < 500 | – | O=S(=O)(Nc1ccc(F)c(Nc2ncnc3cnc(-n4cnc5c(N6CC(CCO)C6)cccc54)nc23)c1F)c1cccc(Cl)c1Cl [Example 147] | −9
26 | 10 to 50 | > 10 | 1000 to 10000 | – | CCc1ccccc1S(=O)(=O)Nc1ccc(F)c(Nc2ncnc3cnc(-n4cnc5ccccc54)nc23)c1F [Example 148] | −1
27 | 10 to 50 | > 10 | < 500 | – | CCc1ccccc1S(=O)(=O)Nc1ccc(F)c(Nc2ncnc3cnc(-n4cnc5c(N6CCC(O)(CC)CC6)cccc54)nc23)c1F [Example 149] | 4
28 | 10 to 50 | 1 to 10 | 1000 to 10000 | – | O=S(=O)(Nc1ccc(F)c(Nc2ncnc3cnc(-n4cnc5ccccc54)nc23)c1F)c1cccc2c1OC(F)(F)O2 [Example 150] | −8
29 | 10 to 50 | 1 to 10 | < 500 | – | CCC1(O)CCN(c2cccc3c2ncn3-c2ncc3ncnc(Nc4c(F)ccc(NS(=O)(=O)c5cccc6c5OC(F)(F)O6)c4F)c3n2)CC1 [Example 151] | 10
30 | > 50 | 1 to 10 | 1000 to 10000 | – | Cc1cccc(S(=O)(=O)Nc2ccc(F)c(Nc3ncnc4cnc(-n5cnc6ccccc65)nc34)c2F)c1Cl [Example 152] | −15
31 | 10 to 50 | 1 to 10 | < 500 | – | CCC1(O)CCN(c2cccc3c2ncn3-c2ncc3ncnc(Nc4c(F)ccc(NS(=O)(=O)c5cccc(C)c5Cl)c4F)c3n2)CC1 [Example 153] | −6
32 | > 50 | 1 to 10 | 500 to 1000 | – | Cc1c(S(=O)(=O)Nc2ccc(F)c(Nc3ncnc4cnc(-n5cnc6ccccc65)nc34)c2F)ccc(F)c1F [Example 154] | 3

— US20240239801A1, “PYRIMIDO[5,4,D]PYRIMIDINE COMPOUNDS, COMPOSITIONS COMPRISING THEM AND USES THEREOF” (Université de Montréal, priority 2021, published 2024)
